Test results taken from ChEMBL document CHEMBL1201862, “PubChem BioAssay data set” (2004).
Activity calls are given as the source filed them.

What was measured:
Cytochrome P450 1A2 = biological target: T1, Cytochrome P450 1A2 (Homo sapiens, UniProt P05177);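 also: PubChem cytochrome P450 panel assay, CYP1A2 panel member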
T1 sequence (P05177 whole entry): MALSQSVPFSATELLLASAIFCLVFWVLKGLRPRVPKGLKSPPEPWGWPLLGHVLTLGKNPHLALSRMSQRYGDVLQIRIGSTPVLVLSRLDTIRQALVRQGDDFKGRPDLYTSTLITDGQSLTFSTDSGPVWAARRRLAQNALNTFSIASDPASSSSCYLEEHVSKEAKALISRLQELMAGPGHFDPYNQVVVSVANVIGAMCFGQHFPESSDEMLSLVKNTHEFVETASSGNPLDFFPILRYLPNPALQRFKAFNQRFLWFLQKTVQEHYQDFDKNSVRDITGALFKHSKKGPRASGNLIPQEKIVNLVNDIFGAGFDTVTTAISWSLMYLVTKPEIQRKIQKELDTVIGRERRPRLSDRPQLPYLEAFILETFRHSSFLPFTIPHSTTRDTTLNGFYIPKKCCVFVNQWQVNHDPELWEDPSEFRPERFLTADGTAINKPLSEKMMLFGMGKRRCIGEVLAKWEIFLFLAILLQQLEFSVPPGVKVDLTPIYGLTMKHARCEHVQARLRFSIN

Cytochrome P450 3A4 = Cytochrome P450 3A4 (Homo sapiens, UniProt P08684);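 also: CYP3A4 tested as one member of a cytochrome P450 panel screen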
Cytochrome P450 2C9 = Cytochrome P450 2C9 (Homo sapiens, UniProt P11712)
[1] = biological target: T2, RNA-binding protein pos-1 (Caenorhabditis elegans, UniProt G5EF15); test: disruptors of C. elegans POS-1 RNA interaction – biochemical, fluorescence polarization, dose response (AID 1964);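 also: purified POS-1 fused to maltose binding protein made in E. coli; potency of compounds blocking POS-1 binding to fluorescent RNA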
T2 sequence (G5EF15 whole entry): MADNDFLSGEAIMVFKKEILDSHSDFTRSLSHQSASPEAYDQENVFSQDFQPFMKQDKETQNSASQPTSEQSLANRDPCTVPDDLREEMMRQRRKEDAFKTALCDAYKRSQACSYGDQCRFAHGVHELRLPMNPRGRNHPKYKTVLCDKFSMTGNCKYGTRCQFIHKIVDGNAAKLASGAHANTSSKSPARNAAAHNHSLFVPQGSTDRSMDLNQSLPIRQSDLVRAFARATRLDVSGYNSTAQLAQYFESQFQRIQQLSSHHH

[2] = biological target: T3, Zinc finger protein mex-5 (Caenorhabditis elegans, UniProt Q9XUB2); test: potency of MEX-5 RNA-binding blockers – biochemical, C. elegans, fluorescence polarization, dose response (AID 1960)
T3 sequence (Q9XUB2 whole entry): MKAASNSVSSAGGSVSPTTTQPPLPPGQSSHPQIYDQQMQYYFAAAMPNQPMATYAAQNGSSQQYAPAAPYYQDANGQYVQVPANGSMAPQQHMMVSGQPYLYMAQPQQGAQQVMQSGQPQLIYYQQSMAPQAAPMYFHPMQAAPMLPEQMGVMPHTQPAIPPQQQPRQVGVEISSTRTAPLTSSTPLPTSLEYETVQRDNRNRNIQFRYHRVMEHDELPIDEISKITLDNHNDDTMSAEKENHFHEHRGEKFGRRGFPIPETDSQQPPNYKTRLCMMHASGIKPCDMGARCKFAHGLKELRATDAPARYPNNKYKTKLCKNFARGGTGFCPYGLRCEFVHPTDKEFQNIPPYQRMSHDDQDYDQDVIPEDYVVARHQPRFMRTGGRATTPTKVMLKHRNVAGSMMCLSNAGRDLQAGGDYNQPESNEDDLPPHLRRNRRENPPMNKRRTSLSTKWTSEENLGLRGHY

Cytochrome P450 2C19 = Cytochrome P450 2C19 (Homo sapiens, UniProt P33261); test: Cytochrome panel assay with activity outcomes. Panel member name: p450-cyp2c19 Compounds with AC50 equal or less than 10 uM are considered active; assay type: functional; details: read-out: AC50
[3] = Luminescence Cell-Based Dose Retest to Confirm Inhibitors of Cancer Stem Cells. [Related pubchem assays (depositor defined):AID2717, AID2721]; assay type: functional; details: Homo sapiens
[4] = biological target: T4, Heat shock factor protein 1 (Mus musculus, UniProt P38532); test: enhancement of HSF1-driven luciferase signal – cell-based, NIH3T3, luminescence, dose retest, confirmation (AID 435004); assay type: functional;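 also: stress induced by proteasome inhibitor MG132 added 30 min after compound; luciferase reporter driven by HSF1 response element in NIH3T3 cells; actives raise luminescence as potentiators of the MG132 stress response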
T4 sequence (P38532 whole entry): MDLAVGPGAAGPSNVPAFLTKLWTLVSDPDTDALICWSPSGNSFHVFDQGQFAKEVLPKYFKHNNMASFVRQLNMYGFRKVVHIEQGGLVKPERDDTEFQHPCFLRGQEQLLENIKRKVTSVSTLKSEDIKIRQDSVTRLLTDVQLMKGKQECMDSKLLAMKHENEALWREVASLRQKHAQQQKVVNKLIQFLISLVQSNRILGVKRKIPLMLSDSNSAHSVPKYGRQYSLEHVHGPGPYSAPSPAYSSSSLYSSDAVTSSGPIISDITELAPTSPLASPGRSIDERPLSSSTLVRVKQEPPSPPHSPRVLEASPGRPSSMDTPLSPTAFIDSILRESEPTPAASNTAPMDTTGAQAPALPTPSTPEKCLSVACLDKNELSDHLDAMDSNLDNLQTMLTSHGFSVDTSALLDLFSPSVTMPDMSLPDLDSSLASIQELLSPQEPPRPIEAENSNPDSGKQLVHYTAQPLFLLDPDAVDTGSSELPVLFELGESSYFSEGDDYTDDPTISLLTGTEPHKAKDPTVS

[5] = Luminescence Cell-Based Dose Confirmation HTS to Identify Activators of 5'UTR Stem-Loop Driven Alpha-Synuclein mRNA Translation in H4 Neuroglioblastoma Cells. [Related pubchem assays: 1829 (Project Summary), 1814 (Primary HTS)]; assay type: functional
[6] = Luminescence Cell-Based Dose Response HTS to Identify Activators of Luciferase Translation or Activity in H4 […] Cells. [Related pubchem assays: 1829 (Project Summary), 1814 (Primary HTS)]; assay type: functional
H4 = test: Luminescence Cell-Based Dose Response HTS to Identify Activators of 5'UTR Stem-Loop Driven Prion Protein mRNA Translation in H4 Neuroglioblastoma Cells. [Related pubchem assays: 1829 (Project Summary), 1814 (Primary HTS)]; assay type: functional; details: Homo sapiens
[7] = reduction of Shn3 3'UTR-driven luciferase in osteoblasts – cell-based, Clone20 osteoblasts, firefly luciferase, cherry-picked, dose response (AID 624132); assay type: functional;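 also: firefly luciferase luminescence from reporter carrying the Shn3 3'UTR in osteoblasts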
[8] = non-specific 3'UTR reporter inhibition in Clone20-Shn3RL – cell-based, Renilla luciferase, cherry-picked, counter-screen for Shn3 inhibitor project, dose response (AID 624133); assay type: functional

Sequence of Cytochrome P450 3A4 (P08684 whole entry): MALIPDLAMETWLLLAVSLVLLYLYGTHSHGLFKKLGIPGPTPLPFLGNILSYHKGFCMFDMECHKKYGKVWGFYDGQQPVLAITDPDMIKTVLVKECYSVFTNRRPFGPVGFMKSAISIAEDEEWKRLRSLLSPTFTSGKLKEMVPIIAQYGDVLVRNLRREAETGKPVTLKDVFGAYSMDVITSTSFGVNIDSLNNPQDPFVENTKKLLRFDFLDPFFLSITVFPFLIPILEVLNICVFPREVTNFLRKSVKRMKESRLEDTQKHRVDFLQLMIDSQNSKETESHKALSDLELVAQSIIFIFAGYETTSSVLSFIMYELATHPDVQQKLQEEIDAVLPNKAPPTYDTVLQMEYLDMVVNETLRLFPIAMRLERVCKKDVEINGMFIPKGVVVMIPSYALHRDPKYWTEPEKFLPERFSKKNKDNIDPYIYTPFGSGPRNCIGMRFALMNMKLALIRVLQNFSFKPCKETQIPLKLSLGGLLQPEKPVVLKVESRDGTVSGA
Sequence of Cytochrome P450 2C9 (P11712 whole entry, the tested form may be a part): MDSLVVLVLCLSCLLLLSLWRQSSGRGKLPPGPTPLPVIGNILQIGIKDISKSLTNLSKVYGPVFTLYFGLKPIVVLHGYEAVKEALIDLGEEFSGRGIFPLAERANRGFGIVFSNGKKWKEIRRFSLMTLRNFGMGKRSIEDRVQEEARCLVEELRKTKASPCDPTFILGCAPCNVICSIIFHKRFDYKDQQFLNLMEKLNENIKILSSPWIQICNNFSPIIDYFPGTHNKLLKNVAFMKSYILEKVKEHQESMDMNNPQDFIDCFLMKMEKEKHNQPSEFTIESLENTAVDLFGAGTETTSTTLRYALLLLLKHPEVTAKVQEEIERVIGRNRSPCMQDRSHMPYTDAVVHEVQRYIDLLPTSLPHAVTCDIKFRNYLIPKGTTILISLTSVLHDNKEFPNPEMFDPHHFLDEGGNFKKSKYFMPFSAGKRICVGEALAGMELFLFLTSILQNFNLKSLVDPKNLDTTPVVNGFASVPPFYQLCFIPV
Sequence of Cytochrome P450 2C19 (P33261 whole entry): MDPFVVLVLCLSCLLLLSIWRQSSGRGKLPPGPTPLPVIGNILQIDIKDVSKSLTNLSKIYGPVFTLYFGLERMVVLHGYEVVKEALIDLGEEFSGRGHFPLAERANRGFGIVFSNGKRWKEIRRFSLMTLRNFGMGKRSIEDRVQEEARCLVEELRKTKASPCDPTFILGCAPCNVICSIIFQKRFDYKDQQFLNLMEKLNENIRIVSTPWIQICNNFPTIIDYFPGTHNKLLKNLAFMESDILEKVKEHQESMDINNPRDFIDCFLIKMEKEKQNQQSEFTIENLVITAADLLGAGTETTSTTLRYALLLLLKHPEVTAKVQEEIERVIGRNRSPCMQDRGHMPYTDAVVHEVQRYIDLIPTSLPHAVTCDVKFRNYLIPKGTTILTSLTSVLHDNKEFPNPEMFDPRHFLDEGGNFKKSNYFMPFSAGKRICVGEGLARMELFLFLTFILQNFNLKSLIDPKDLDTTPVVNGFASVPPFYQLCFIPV

Compound: CC(C)c1ccc(N2C(=O)CC(Sc3nc4ccccc4o3)C2=O)cc1 (stereo unspecified)
- AC50 (Cytochrome P450 1A2): 5.01 µM (inconclusive)
- AC50 (Cytochrome P450 3A4): 39.8 µM (inconclusive)

Compound: COc1ccc(-c2csc(NC(=O)Cn3nc(C)cc3C)n2)cc1
- AC50 (Cytochrome P450 3A4): 15.8 µM (inconclusive)
- AC50 (Cytochrome P450 2C9): 0.794 µM (inconclusive)

Compound: Cc1cc(C)cc(N2C(=O)/C(=C\c3ccc(N4CCN(C)CC4)o3)C(=O)NC2=S)c1
- EC50 [1]: > 300 µM (inconclusive)
- EC50 [2]: > 300 µM (inconclusive)

Compound: COc1ccc(O[C@H]2C=C[C@@H](c3ccccc3)O[C@H]2CO/N=C(/C)CCC(=O)OC[C@@H]2O[C@H](C#Cc3ccccc3)C=C[C@@H]2Oc2ccc(C)cc2)cc1
- AC50 (Cytochrome P450 2C19): 0.126 µM (inconclusive)
- AC50 (Cytochrome P450 3A4): 3.16 µM (inconclusive)

Compound: COc1ccc(N/C=C2/C(=O)N(c3cccc(C)n3)C(=O)c3ccccc32)cc1
- EC50 [1]: > 300 µM (not active)
- EC50 [2]: > 300 µM (not active)

Compound: Cc1ccc(NS(=O)(=O)c2sc3ccc(Cl)cc3c2C)cc1
- AC50 [3]: 3.78 µM (active)

Compound: O=C(CN1CCOCC1)N(c1ccccc1)c1ccc2ccccc2c1
- EC50 [4]: > 260 µM (inactive)

Compound: CCN(CC)c1ccc(N/C=C2/C(=O)NC(=O)N(c3ccccc3)C2=O)cc1
- EC50 [1]: > 300 µM (not active)
- EC50 [2]: > 300 µM (not active)

Compound: O=c1c(-c2cccc(F)c2)nc2cncnc2n1C1CC1
- AC50 (Cytochrome P450 3A4): 12.6 µM (inconclusive)

Compound: CC(NC(=O)c1ccc(Cl)cc1)c1nnc(SCc2ccc([N+](=O)[O-])cc2)n1C (stereo unspecified)
- AC50 (Cytochrome P450 2C19): 39.8 µM (inconclusive)
- AC50 (Cytochrome P450 1A2): 15.8 µM (inconclusive)
- AC50 (Cytochrome P450 3A4): 8.91 µM (inconclusive)
- AC50 (Cytochrome P450 2C9): 28.2 µM (inconclusive)

Compound: CCOC(=O)N1CCN(/C=C(\C#N)c2nc3ccccc3s2)CC1
- EC50 [1]: > 300 µM (not active)
- EC50 [5]: 38 µM (active)
- EC50 [6]: 14.7 µM (active)
- EC50 (H4): 37.5 µM (active)
- EC50 [2]: > 300 µM (not active)

Compound: Nc1nnnn1/N=C\c1ccc(Cl)c([N+](=O)[O-])c1
- EC50 [4]: > 260 µM (inactive)

Compound: COCC1CCN(C(=O)CC2C(=O)NCCN2Cc2cccc(Oc3ccccc3)c2)CC1 (stereo unspecified)
- EC50 [1]: > 300 µM (not active)
- EC50 [2]: > 300 µM (not active)

Compound: COc1ccc(-c2sc3cc4c(cc3c2C#CC2(O)CCCCC2)OCO4)cc1
- AC50 [3]: 4.07 µM (active)

Compound: C/C(NCCN1CCCCC1)=C1/C(=O)NC(=O)N(c2ccc(Cl)cc2)C1=O
- EC50 [1]: > 300 µM (not active)
- EC50 [2]: > 300 µM (not active)

Compound: CCNc1ncc2nc(-c3ccc(OC)cc3)c(=O)n(-c3ccc(OC)cc3)c2n1
- AC50 (Cytochrome P450 3A4): 12.6 µM (inconclusive)

Compound: CC(=O)c1ccc2c(c1)C1C=CCC1C(c1cc3c(cc1Br)OCO3)N2 (stereo unspecified)
- EC50 [1]: > 300 µM (not active)
- EC50 [2]: > 300 µM (not active)

Compound: CCOc1cccc2cc(C(N)=O)/c(=N/Cc3ccccc3)oc12
- AC50 (Cytochrome P450 3A4): 14.1 µM (inconclusive)

Compound: O=C(CCC1CCCC1)/N=C1\SC2CS(=O)(=O)CC2N1c1ccccc1F (stereo unspecified)
- EC50 [4]: > 260 µM (inactive)

Compound: COc1ccc(Cn2c3ccc(OC)cc3c3nc4ccccc4nc32)cc1
- AC50 [3]: 13 µM (active)

Compound: CC(=O)Nc1ccc(NC(=O)c2ccc(NS(=O)(=O)c3cc(C(C)(C)C)cc(C)c3C)cc2)cc1
- EC50 [4]: 12.5 µM (active)

Compound: Cc1ccn(CC(=O)N2CCCC(N3CCN(c4ccc(F)cc4)CC3)C2)n1 (stereo unspecified)
- EC50 [4]: > 260 µM (inactive)

Compound: COCCNC(=O)CSc1nc2cc(OC)c(OC)cc2c(=O)n1Cc1ccco1
- AC50 (Cytochrome P450 2C19): 20 µM (inconclusive)
- AC50 (Cytochrome P450 3A4): 3.55 µM (inconclusive)

Compound: CS(=O)(=O)N1CCC[C@@]2(CCN(C(=O)Nc3cccc(F)c3)C2)C1
- AC50 (Cytochrome P450 3A4): 12.6 µM (inconclusive)

Compound: CC(c1ccccc1)N1CC(C(=O)N2CCN(c3ccc(F)cc3)CC2)CC1=O (stereo unspecified)
- EC50 [4]: > 260 µM (inactive)

Compound: CN1C(=O)c2cccc(NCCCCCCN3C(=O)c4ccccc4C3=O)c2C1=O
- AC50 [7]: 5.57 µM (active)
- AC50 [8]: 17.2 µM (active)

Compound: N#CCCn1c(=O)c(-c2ccc(F)cc2)nc2cnc(N3CCNCC3)nc21
- AC50 (Cytochrome P450 3A4): 25.1 µM (inconclusive)

Compound: CC(C)NCC(O)COCc1ccc(Cl)cc1 (stereo unspecified)
- EC50 [4]: > 260 µM (inactive)

Compound: Cc1noc(NS(=O)(=O)c2cccc3c(N(C)C)cccc23)c1C [BMS-182874]
- AC50 (Cytochrome P450 3A4): 20 µM (inconclusive)

Compound: COc1ccccc1NC(=O)Nc1nc(CC(=O)N2CCN(c3ccccc3)CC2)cs1
- EC50 [4]: > 260 µM (inactive)

Compound: COC(=O)c1ccc(C2Nc3ccc(/C(C)=N/NC(=O)C(OC)c4ccccc4)cc3C3C=CCC32)cc1 (stereo unspecified)
- EC50 [1]: > 300 µM (not active)
- EC50 [2]: 35.2 µM (active)

Compound: Cc1onc(-c2ccccc2)c1NC(=O)N(CCC#N)Cc1ccccc1
- EC50 [4]: > 260 µM (inactive)

Compound: CCN(CC(=O)Nc1ccc(NC(C)=O)cc1)C(=O)c1ccccc1CCc1ccccc1
- AC50 [3]: > 195 µM (inactive)

Compound: O=C(/C=C/c1ccc2c(c1)OCO2)NCCSCc1ccc(Cl)cc1
- AC50 [3]: 0.922 µM (active)

Compound: O=c1c(-c2cccs2)nc2cnc(N3CCOCC3)nc2n1Cc1ccc(F)cc1
- AC50 (Cytochrome P450 1A2): 20 µM (inconclusive)
- AC50 (Cytochrome P450 3A4): 2.51 µM (inconclusive)

Compound: O=[N+]([O-])c1ccc(/N=C/C=C(\O)c2ccc(Br)cc2)cc1
- EC50 [1]: > 300 µM (not active)
- EC50 [2]: > 300 µM (not active)

Compound: CCCCN1CCCC[C@H]1C(=O)Nc1c(C)cccc1C [LEVOBUPIVACAINE]
- AC50 (Cytochrome P450 3A4): 10 µM (inconclusive)

Compound: Cc1c(/C=N/NC(=O)c2cc(O)nc(O)n2)c2ccccn2c1C(=O)c1ccccc1
- EC50 [1]: > 300 µM (not active)
- EC50 [2]: > 300 µM (inconclusive)

Compound: Cn1c(S)nnc1CNS(=O)(=O)c1ccc(Cl)cc1
- AC50 (Cytochrome P450 3A4): 15.8 µM (inconclusive)

Compound: COC(=O)CCCC1=CC2=CC(=O)C(C)(OC(=O)c3cnc4ccccc4n3)C(=O)C2=CO1 (stereo unspecified)
- EC50 [1]: 12.7 µM (active)
- EC50 [2]: 12.3 µM (active)

Compound: N#Cc1ccc(-c2ccc(F)cc2)nc1Sc1ccccc1
- AC50 (Cytochrome P450 2C19): 5.01 µM (inconclusive)
- AC50 (Cytochrome P450 3A4): 12.6 µM (inconclusive)
- AC50 (Cytochrome P450 2C9): 5.01 µM (inconclusive)
